In ChEMBL document CHEMBL4190187, “Discovery of pyrazolopyrimidine derivatives as novel inhibitors of ataxia telangiectasia and rad3 related protein (ATR)” (Bioorg Med Chem Lett, 2017):

Columns and labels:
[1] = biological target: Calcium/calmodulin-dependent protein kinase kinase 2 (Homo sapiens) (UniProt Q96RR4); test: Inhibition of recombinant full-length human CAMKK2 at 1 uM using […] after 40 mins in presence of [gamma-33P]ATP by scintillation counting method
[2] = test system: Tyrosine-protein kinase ABL1 (Homo sapiens), P00519 [H396P]; test: Inhibition of recombinant human Abl H396P mutant (27 to end residues) at 1 uM using EAIYAAPFAKKK as substrate after 40 mins in presence of [gamma-33P]ATP by scintillation counting method
[3] = biological target: Tyrosine-protein kinase HCK (Homo sapiens) (UniProt P08631); test: Inhibition of recombinant human Hck (230 to 497 residues) at 1 uM using KVEKIGEGTYGVVYK (Cdc2 peptide) as substrate after 40 mins in presence of [gamma-33P]ATP by scintillation counting method
[4] = biological target: Serine/threonine-protein kinase SIK1 (Homo sapiens) (UniProt P57059); test: Inhibition of recombinant human SIK (1 to 281 residues) at 1 uM using AMARAASAAALARRR as substrate after 40 mins in presence of [gamma-33P]ATP by scintillation counting method
[5] = biological target: Mitogen-activated protein kinase kinase kinase 3 (Homo sapiens) (UniProt Q99759); test: Inhibition of recombinant full-length human MEKK3 at 1 uM using MBP as substrate after 40 mins in presence of [gamma-33P]ATP by scintillation counting method
[6] = test system: Mast/stem cell growth factor receptor Kit (Homo sapiens), P10721 [V560G]; test: Inhibition of recombinant human cKit V560G mutant (544 to end residues) at 1 uM using GGMEDIYFEFMGGKKK as substrate after 40 mins in presence of [gamma-33P]ATP by scintillation counting method
[7] = biological target: Dual specificity protein kinase CLK2 (Homo sapiens) (UniProt P49760); test: Inhibition of recombinant human CLK2 (138 to end residues) at 1 uM using YRRAAVPPSPSLSRHSSPHQS(p)EDEEE as substrate after 40 mins in presence of [gamma-33P]ATP by scintillation counting method
[8] = biological target: Serine/threonine-protein kinase 17B (Homo sapiens) (UniProt O94768); test: Inhibition of recombinant full-length human DRAK2 at 1 uM using KKRPQRRYSNVF as substrate after 120 mins in presence of [gamma-33P]ATP by scintillation counting method
[9] = biological target: Casein kinase II subunit alpha (Homo sapiens) (UniProt P68400); test: Inhibition of recombinant full-length human CK2alpha1 at 1 uM using RRRDDDSDDD as substrate after 40 mins in presence of [gamma-33P]ATP by scintillation counting method
[10] = biological target: FKBP12A/mTOR (Homo sapiens) (UniProt P62942+P42345); test: Inhibition of recombinant full-length human mTOR/FKBP12 at 1 uM after 40 mins in presence of [gamma-33P]ATP by scintillation counting method; type: protein-complex assay
[11] = test system: Tyrosine-protein kinase BTK (Homo sapiens), Q06187 [R28H]; test: Inhibition of recombinant full-length human BTK R28H mutant at 1 uM using LSNLYHQGKFLQTFCGSPLYRRR as substrate after 40 mins in presence of [gamma-33P]ATP by scintillation counting method
[12] = biological target: Receptor tyrosine-protein kinase erbB-4 (Homo sapiens) (UniProt Q15303); test: Inhibition of recombinant human ErbB4 (706 to 991 residues) at 1 uM using poly(Glu,Tyr) 4:1 as substrate after 40 mins in presence of [gamma-33P]ATP by scintillation counting method
[13] = biological target: Calcium/calmodulin-dependent protein kinase type II subunit beta (Homo sapiens) (UniProt Q13554); test: Inhibition of recombinant human CAMK2beta (1 to 315 residues) at 1 uM using […] after 40 mins in presence of [gamma-33P]ATP by scintillation counting method
[14] = biological target: Testis-specific serine/threonine-protein kinase 1 (Homo sapiens) (UniProt Q9BXA7); test: Inhibition of recombinant full-length human TSSK1 at 1 uM using KKKVSRSGLYRSPSMPENLNRPR as substrate after 40 mins in presence of [gamma-33P]ATP by scintillation counting method
[15] = biological target: Serine/threonine-protein kinase ULK3 (Homo sapiens) (UniProt Q6PHR2); test: Inhibition of recombinant full-length human ULK3 at 1 uM using casein as substrate after 40 mins in presence of [gamma-33P]ATP by scintillation counting method
[16] = biological target: Tyrosine-protein kinase HCK (Homo sapiens) (UniProt P08631); test: Inhibition of recombinant human activated Hck (230 to 497 residues) at 1 uM using GGMEDIYFEFMGGKKK as substrate after 40 mins in presence of [gamma-33P]ATP by scintillation counting method
[17] = test system: Fibroblast growth factor receptor 1 (Homo sapiens), P11362 [V561M]; test: Inhibition of recombinant human FGFR1 V561M mutant (456 to 765 residues) at 1 uM using GGEEEEYFELVKKKK as substrate after 40 mins in presence of [gamma-33P]ATP by scintillation counting method
[18] = biological target: Mitogen-activated protein kinase 8 (Homo sapiens) (UniProt P45983); test: Inhibition of recombinant full-length human JNK1alpha1 at 1 uM using ATF2 as substrate after 40 mins in presence of [gamma-33P]ATP by scintillation counting method
[19] = biological target: Serine/threonine-protein kinase mTOR (Homo sapiens) (UniProt P42345); test: Inhibition of recombinant full-length human mTOR at 1 uM after 40 mins in presence of [gamma-33P]ATP by scintillation counting method
[20] = biological target: Tyrosine-protein kinase Mer (Homo sapiens) (UniProt Q12866); test: Inhibition of recombinant human MER (557 to 882 residues) at 1 uM using GGMEDIYFEFMGGKKK as substrate after 40 mins in presence of [gamma-33P]ATP by scintillation counting method
[21] = biological target: Tyrosine-protein kinase SYK (Homo sapiens) (UniProt P43405); test: Inhibition of recombinant full-length human Syk at 1 uM using poly(Glu,Tyr) 4:1 as substrate after 40 mins in presence of [gamma-33P]ATP by scintillation counting method
[22] = biological target: Serine/threonine-protein kinase MARK1 (Homo sapiens) (UniProt Q9P0L2); test: Inhibition of recombinant human MARK1 (2 to end residues) at 1 uM using KKKVSRSGLYRSPSMPENLNRPR as substrate after 40 mins in presence of [gamma-33P]ATP by scintillation counting method
[23] = biological target: CDK3/Cyclin E (Homo sapiens) (UniProt P24864+Q00526); test: Inhibition of recombinant full-length human CDK3/Cyclin E at 1 uM using histone H1 as substrate after 40 mins in presence of [gamma-33P]ATP by scintillation counting method; type: protein-complex assay
[24] = biological target: Tyrosine-protein kinase ITK/TSK (Homo sapiens) (UniProt Q08881); test: Inhibition of recombinant human ITK (352 to 617 residues) at 1 uM using myelin basic protein as substrate after 40 mins in presence of [gamma-33P]ATP by scintillation counting method
Tyrosine-protein kinase ITK/TSK (Homo sapiens), sequence (Q08881 whole entry, the tested form may be a part): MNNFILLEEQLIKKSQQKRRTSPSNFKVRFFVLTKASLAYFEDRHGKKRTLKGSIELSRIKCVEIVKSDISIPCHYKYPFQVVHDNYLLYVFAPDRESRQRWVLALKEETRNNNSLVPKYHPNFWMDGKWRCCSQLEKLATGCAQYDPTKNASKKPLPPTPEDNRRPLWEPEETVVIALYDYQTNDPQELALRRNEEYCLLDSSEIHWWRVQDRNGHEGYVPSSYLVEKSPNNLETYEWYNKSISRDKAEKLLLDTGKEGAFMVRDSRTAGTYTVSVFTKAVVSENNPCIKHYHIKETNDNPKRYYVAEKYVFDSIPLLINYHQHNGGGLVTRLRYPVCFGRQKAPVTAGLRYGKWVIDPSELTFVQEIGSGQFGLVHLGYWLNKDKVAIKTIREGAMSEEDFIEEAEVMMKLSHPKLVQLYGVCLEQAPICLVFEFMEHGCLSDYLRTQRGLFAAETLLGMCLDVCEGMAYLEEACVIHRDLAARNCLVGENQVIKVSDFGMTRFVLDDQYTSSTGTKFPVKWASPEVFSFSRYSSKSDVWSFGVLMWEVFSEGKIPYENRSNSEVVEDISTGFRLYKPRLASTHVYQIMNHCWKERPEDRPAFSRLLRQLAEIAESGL

Tyrosine-protein kinase HCK (Homo sapiens), sequence (P08631 2-526 limits assumed): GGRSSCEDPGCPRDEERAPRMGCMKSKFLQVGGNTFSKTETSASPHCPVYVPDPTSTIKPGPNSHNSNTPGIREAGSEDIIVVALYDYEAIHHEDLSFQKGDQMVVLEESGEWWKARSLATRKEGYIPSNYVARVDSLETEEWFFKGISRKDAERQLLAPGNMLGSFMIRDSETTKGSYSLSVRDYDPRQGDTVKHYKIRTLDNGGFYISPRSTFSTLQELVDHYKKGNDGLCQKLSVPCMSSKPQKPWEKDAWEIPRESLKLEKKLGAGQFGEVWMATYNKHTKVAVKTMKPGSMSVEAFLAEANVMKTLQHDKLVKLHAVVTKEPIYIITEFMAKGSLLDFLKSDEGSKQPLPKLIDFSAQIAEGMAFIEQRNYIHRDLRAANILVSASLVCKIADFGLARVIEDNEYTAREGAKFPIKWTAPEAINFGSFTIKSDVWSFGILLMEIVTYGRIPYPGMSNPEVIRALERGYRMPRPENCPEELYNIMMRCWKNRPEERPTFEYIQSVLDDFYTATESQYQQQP
Receptor tyrosine-protein kinase erbB-4 (Homo sapiens), sequence (Q15303 whole entry, the tested form may be a part): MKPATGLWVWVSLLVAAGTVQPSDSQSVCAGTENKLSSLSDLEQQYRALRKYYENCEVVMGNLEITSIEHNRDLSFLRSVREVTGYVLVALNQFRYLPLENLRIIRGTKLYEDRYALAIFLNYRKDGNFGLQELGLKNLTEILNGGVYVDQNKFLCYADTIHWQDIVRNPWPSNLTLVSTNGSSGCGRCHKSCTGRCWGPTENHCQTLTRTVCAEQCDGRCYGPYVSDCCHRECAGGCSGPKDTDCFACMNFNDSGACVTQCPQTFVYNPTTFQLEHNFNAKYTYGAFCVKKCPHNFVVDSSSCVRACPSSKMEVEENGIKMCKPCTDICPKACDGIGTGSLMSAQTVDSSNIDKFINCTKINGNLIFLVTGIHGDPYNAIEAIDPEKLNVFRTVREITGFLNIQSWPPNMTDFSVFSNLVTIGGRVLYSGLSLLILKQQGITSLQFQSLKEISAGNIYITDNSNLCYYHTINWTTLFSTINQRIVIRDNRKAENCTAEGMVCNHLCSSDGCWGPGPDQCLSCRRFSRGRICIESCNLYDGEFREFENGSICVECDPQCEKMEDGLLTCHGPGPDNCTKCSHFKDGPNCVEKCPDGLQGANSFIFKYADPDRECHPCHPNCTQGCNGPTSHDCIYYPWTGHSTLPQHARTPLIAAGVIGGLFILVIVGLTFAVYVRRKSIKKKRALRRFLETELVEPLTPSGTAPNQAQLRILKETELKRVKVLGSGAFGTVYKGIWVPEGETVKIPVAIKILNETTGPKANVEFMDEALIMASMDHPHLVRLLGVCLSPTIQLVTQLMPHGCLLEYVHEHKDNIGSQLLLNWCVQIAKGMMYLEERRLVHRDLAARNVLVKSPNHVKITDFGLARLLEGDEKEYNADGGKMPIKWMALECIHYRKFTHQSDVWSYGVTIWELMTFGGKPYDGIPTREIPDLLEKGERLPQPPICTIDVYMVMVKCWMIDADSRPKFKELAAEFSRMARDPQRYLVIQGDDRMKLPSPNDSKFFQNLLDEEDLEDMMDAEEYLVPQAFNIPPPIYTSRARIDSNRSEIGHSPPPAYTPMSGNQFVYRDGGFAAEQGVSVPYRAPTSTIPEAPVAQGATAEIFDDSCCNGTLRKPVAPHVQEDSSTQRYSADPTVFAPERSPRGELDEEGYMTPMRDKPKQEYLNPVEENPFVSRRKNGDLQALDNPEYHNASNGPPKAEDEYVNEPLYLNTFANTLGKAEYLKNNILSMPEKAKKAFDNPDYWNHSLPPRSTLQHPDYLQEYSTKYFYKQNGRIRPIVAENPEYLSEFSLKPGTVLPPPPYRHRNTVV
Serine/threonine-protein kinase 17B (Homo sapiens), sequence (O94768 whole entry): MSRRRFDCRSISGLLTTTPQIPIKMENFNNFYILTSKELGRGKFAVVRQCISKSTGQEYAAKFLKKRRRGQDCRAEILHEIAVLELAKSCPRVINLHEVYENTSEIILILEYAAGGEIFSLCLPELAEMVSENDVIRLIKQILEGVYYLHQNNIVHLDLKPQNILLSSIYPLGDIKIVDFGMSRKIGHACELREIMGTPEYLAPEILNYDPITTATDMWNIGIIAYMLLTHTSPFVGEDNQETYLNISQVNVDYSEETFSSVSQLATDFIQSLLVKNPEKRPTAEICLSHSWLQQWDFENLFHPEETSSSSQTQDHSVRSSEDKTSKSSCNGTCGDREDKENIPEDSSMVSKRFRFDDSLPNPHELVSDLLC
FKBP12A/mTOR (Homo sapiens), sequence (P62942 2-108 limits assumed, other chains not shown): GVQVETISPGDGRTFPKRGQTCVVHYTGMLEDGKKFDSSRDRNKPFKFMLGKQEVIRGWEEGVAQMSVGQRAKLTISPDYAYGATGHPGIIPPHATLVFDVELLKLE
Serine/threonine-protein kinase SIK1 (Homo sapiens), sequence (P57059 whole entry, the tested form may be a part): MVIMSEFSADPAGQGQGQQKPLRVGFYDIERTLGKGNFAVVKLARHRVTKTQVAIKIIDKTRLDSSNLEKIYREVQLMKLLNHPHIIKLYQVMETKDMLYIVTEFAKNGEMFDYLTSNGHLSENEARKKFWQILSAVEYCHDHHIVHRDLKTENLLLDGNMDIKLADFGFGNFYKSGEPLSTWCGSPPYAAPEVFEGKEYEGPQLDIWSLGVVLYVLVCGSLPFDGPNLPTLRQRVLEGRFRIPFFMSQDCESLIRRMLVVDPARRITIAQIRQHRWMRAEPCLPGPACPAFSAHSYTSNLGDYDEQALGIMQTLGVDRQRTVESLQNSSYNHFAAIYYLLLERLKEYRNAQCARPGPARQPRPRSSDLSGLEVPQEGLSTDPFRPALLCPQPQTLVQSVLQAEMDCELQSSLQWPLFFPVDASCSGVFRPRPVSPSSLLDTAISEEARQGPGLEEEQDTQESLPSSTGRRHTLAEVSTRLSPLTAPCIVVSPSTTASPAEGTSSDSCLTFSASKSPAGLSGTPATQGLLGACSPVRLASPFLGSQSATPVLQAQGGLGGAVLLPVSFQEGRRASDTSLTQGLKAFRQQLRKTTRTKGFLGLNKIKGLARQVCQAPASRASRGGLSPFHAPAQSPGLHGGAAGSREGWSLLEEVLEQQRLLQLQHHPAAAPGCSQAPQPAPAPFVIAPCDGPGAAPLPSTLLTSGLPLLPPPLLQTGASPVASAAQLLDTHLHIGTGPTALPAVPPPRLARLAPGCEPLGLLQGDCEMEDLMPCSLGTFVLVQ
Casein kinase II subunit alpha (Homo sapiens), sequence (P68400 whole entry, looked up): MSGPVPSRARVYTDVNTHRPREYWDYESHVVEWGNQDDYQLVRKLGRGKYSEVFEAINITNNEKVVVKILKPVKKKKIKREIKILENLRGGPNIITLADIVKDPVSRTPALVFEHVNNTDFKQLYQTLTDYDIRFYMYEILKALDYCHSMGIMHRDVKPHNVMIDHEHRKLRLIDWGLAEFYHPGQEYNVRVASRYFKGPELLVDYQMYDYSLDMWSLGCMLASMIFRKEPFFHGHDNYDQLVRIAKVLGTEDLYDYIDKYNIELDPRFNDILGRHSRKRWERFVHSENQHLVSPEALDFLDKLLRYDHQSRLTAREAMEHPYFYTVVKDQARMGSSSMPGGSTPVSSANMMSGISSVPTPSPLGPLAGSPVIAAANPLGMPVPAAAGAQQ
Fibroblast growth factor receptor 1 (Homo sapiens), P11362 [V561M], sequence (P11362 whole entry V561M, the tested form may be a part): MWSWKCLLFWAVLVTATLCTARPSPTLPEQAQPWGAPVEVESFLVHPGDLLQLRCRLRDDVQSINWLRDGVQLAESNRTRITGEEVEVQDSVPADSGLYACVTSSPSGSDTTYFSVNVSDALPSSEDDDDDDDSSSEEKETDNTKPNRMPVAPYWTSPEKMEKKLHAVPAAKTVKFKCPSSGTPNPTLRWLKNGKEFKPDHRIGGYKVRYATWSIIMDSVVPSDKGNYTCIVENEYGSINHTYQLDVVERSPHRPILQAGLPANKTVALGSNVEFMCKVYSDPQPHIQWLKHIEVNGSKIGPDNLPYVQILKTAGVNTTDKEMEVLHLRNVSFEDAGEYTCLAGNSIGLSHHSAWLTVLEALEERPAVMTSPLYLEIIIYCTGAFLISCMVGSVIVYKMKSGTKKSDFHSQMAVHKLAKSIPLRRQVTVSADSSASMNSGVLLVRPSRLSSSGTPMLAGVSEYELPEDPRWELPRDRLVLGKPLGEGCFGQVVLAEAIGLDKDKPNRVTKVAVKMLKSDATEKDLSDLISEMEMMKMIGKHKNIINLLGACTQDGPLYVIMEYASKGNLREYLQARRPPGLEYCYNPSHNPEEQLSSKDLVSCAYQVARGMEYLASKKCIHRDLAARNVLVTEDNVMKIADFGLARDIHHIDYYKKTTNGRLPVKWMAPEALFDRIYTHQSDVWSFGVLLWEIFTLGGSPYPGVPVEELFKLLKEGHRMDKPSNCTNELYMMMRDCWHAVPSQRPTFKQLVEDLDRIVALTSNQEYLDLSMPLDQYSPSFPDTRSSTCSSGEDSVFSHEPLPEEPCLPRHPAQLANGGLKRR

CS(=O)(=O)c1ccc(-n2nc(-c3cnc4[nH]ccc4c3)c3c(N)ncnc32)cc1
inhibition [1]: -4% | inhibition [2]: 79% | inhibition [3]: 50% | inhibition [4]: 35% | inhibition [5]: 9% | inhibition [6]: 76% | inhibition [7]: 13% | inhibition [8]: 7% | inhibition [9]: 19% | inhibition [10]: 78% | inhibition [11]: 5% | inhibition [12]: 4% | inhibition [13]: -4% | inhibition [14]: -8% | inhibition [15]: 16% | inhibition [16]: 93% | inhibition [17]: 12% | inhibition [18]: 1% | inhibition [19]: 65% | inhibition [20]: -3% | inhibition [21]: 7% | inhibition [22]: -7% | inhibition [23]: -6% | inhibition [24]: -9%
